Assay results from patent US8242128B2, “1,3-benzoxazolyl derivatives as kinase inhibitors” (Merck Patent GmbH, priority 2003, dated 2012).

Tests used:
RAF = experiment: Inhibition of RAF; assay type: biochemical
TIE-2 = TIE-2 (Homo sapiens, UniProt Q02763); experiment: Inhibition of TIE-2 (flashplate kinase assay, poly(Glu, Tyr) phosphorylation, 33P-ATP); assay type: biochemical
Description: The TIE-2 tests can be carried out, for example, analogously to the methods indicated in WO 02/44156.
The assay determines the inhibiting activity of the substances to be tested in the phosphorylation of the substrate poly(Glu, Tyr) by Tie-2 kinase in the presence of radioactive ^33P-ATP. The phosphorylated substrate binds to the surface of a “flashplate” microtitre plate during the incubation time. After removal of the reaction mixture, the microtitre plate is washed a number of times and the radioactivity on its surface is subsequently measured. An inhibiting effect of the substances to be measured results in lower radioactivity compared with an undisturbed enzymatic reaction.

TIE-2, sequence (Q02763 23-1124, species assumed): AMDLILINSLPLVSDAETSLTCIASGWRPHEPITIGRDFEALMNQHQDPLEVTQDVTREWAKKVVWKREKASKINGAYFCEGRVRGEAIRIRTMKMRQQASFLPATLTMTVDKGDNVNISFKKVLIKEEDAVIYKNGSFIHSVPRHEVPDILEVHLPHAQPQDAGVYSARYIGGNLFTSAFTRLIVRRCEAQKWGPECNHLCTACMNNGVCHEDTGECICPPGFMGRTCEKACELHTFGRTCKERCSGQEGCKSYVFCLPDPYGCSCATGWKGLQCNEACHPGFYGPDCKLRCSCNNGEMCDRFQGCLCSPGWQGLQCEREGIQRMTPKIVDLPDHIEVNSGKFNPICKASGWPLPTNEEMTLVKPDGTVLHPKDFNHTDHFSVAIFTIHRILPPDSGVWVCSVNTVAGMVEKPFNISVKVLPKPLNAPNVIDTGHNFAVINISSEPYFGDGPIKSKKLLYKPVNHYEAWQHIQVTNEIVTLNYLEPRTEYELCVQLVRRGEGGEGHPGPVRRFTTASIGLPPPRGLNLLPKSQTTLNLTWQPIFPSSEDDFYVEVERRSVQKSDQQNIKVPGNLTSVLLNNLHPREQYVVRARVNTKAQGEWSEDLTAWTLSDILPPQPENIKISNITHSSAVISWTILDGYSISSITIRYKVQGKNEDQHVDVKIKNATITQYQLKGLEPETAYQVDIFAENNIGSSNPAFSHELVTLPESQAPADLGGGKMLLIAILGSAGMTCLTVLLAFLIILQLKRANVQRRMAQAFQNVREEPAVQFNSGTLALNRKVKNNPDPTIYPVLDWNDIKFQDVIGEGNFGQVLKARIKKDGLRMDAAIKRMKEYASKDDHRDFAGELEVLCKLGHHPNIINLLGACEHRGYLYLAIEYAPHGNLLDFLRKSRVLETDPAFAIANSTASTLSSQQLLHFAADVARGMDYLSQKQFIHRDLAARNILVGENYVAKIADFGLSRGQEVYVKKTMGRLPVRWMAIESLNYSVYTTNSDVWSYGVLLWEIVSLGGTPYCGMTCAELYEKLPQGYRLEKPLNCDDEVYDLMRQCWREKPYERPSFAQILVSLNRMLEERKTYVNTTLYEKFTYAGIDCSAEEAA

IC50 (RAF): > 1000 nM
IC50 (TIE-2): 310 nM
SMILES: O=[N+]([O-])c1cc(Cl)cc2nc(Nc3ccc(Sc4ccncc4)cc3)oc12 [(5-Chloro-7-nitrobenzoxazol-2-yl)-[4-(pyridin-4-ylsulfanyl)phenyl]amine]
